Source: patent US7858630B2, “D3 and 5-HT2A receptor modulators” (Hoffmann-La Roche Inc., priority 2008, dated 2010)

Key:
[1] = biological target: T1, human dopamine D2 receptor (Homo sapiens, UniProt P14416); experiment: Radioligand binding ([3H]-spiperone) to membranes of HEK-293 EBNA cells expressing human D2 receptor; settings: human D2, 0.7 nM [3H]-spiperone, HEK-293 EBNA membranes, 1 h at RT
T1 construct: expressed in transfected cells; host or cells: HEK-293 EBNA cells, transient transfection; membrane preparation
T1 sequence (P14416 whole entry): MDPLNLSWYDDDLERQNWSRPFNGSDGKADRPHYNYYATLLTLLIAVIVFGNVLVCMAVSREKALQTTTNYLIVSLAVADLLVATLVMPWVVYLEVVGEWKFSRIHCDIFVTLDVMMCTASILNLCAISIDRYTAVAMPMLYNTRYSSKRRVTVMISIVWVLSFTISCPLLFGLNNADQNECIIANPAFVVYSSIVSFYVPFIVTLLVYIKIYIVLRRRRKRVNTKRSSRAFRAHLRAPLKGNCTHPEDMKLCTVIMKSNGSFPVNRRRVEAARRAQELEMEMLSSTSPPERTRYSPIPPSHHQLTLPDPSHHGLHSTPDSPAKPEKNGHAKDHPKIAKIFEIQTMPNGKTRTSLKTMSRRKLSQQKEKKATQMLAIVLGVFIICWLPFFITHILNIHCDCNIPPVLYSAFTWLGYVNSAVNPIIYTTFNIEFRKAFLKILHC
Procedure: (§1) The ability of the compounds to bind to the 5-HT2A, D3 and D2 receptors was determined using radioligand binding to cloned receptors selectively expressed in HEK-293 EBNA cells.
(§2) Membrane Preparation for Human D2, Human D3 and Human 5-HT2A Receptors
(§3) HEK-293 EBNA cells were transiently transfected with expression plasmids encoding for the human D2 or D3 dopamine- or for the human 5-HT2A serotonin receptor, respectively. The cells were harvested 48 h post-transfection, washed three times with cold PBS and stored at −80° C. prior to use. The pellet was suspended in cold 50 mM Tris-HCl buffer containing 10 mM EDTA (pH 7.4) and homogenized with a Polytron (Kinematica AG, Basel, Switzerland) for 20-30 sec at 12.000 rpm. After centrifugation at 48.000×g for 30 min at 4° C., the pellet was resuspended in cold 10 mM Tris-HCl buffer containing 0.1 mM EDTA (pH 7.4), homogenized, and centrifuged as above. This pellet was further resuspended in a smaller volume of ice cold 10 mM Tris-HCl buffer containing 0.1 mM EDTA (pH 7.4) and homogenized with a Polytron for 20-30 sec at 12.000 rpm. The protein content of this homogenate was determined with the Bio-Rad (Bradford) Protein Assay (Biorad Laboratories GmbH, München, Germany) according to the instructions of the manufacturer using gamma globulin as the standard. This homogenate was stored at −80° C. in aliquots and thawed immediately prior to use.
(§4) Radioligand Binding Assay Conditions
(§5) Aliquots of membrane preparations were thawed at RT, resupended in assay buffer (D2, D3: 50 mM Tris-HCl, 120 mM NaCl, 5 mM MgCl2, 1 mM EDTA, 5 mM KCl, 1.5 mM CaCl2, pH=7.4; 5-HT2A: 50 mM Tris-HCl, 10 mM MgCl2, 1 mM EGTA, pH=7.4), homogenized with a Polytron for 20-30 sec at 12.000 rpm and adjusted to a final concentration of approximately 7.5 μg protein/well (D2, D3) and 15 μg protein/well (5-HT2A), respectively.
(§6) The binding affinity (Ki) of the compounds was determined using radioligand binding. Membranes were incubated in a total volume of 200 μl with a fixed concentration of radioligand (final concentration approximately 0.7 nM [^3H]-spiperone for D2, 0.5 nM [^3H]-spiperone for D3, and 1.1 nM [^3H]-ketanserin for 5-HT2A) and ten concentrations of test compound in ranging between 10 μM-0.1 nM for 1 h at RT. At the end of the incubation, the reaction mixtures were filtered on to unifilter 96-well white microplates with bonded GF/C filters (Packard BioScience, Zurich, Switzerland; preincubated for 1 h in 0.1% polyethylenimine (PEI) in assay buffer) with a Filtermate 196 harvester (Packard BioScience) and washed 3 times with cold assay buffer. The nonspecific binding was determined with equally composed reaction mixtures in the presence of 10 μM unlabelled spiperone. Per well 45 μl of Microscint 40 (Perkin Elmer, Schwerzenbach, Switzerland) was added, plates for sealed, shaken for 20 min and counted for 3 min on a Topcount Microplate Scintillation Counter (Canberra Packard SA, Zurich, Switzerland) with quenching correction.
(§7) The CPM value for each duplicate of a concentration of competing compound was averaged (y1), then the % specific binding was calculated according to the equation (((y1−non-specific)/(total binding-non-specific))×100). Graphs were plotted with the % specific binding using XLfit, a curve fitting program that iteratively plots the data using Levenburg Marquardt algorithm. The single site competition analysis equation used was y=A+((B−A)/(1+((x/C)^D))), where y is the % specific binding, A is the minimum y, B is the maximum y, C is the IC50, x is the log10 of the concentration of the competing compound and D is the slope of the curve (the Hill Coefficient). From these curves the IC50 (inhibition concentration at which 50% specific binding of the radioligand was displaced) and Hill coefficient were determined. […]

[2] = biological target: T2, human serotonin 5-HT2A receptor (Homo sapiens, UniProt P28223); experiment: Radioligand binding ([3H]-ketanserin) to membranes of HEK-293 EBNA cells expressing human 5-HT2A receptor; settings: 1.1 nM [3H]-ketanserin, HEK-293 EBNA membranes, 1 h at RT
T2 construct: expressed in transfected cells; host or cells: HEK-293 EBNA cells, transient transfection; membrane preparation
T2 sequence (P28223 whole entry): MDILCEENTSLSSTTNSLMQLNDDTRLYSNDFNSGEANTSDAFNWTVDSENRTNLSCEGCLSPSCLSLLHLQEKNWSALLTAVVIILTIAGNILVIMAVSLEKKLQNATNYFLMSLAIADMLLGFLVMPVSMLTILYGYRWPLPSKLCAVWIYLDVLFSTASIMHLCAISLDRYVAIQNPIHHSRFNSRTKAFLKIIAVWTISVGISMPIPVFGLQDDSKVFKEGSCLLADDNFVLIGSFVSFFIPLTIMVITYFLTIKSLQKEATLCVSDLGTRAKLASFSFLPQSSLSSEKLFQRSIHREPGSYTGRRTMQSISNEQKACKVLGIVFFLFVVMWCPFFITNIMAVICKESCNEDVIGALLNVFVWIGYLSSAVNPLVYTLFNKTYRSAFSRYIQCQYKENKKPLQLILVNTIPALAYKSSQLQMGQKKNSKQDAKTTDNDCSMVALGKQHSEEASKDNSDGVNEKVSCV
Procedure: as §1, §2, §3, §4, §5, §6, §7

[3] = biological target: T3, human dopamine D3 receptor (Homo sapiens, UniProt P35462); experiment: Radioligand binding ([3H]-spiperone) to membranes of HEK-293 EBNA cells expressing human D3 receptor; settings: human D3, 0.5 nM [3H]-spiperone, HEK-293 EBNA membranes, 1 h at RT
T3 construct: expressed in transfected cells; host or cells: HEK-293 EBNA cells, transient transfection; membrane preparation
T3 sequence (P35462 whole entry): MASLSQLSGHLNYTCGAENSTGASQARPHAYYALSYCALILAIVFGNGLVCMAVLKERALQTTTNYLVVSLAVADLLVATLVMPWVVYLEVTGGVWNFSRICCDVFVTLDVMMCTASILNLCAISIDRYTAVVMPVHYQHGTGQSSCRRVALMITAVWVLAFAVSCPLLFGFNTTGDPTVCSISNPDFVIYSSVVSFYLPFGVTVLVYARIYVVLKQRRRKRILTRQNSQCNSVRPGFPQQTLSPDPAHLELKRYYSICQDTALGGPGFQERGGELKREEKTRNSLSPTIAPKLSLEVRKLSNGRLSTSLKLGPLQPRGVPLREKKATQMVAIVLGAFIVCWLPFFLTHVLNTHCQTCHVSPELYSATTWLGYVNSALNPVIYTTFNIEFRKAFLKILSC
Procedure: as §1, §2, §3, §4, §5, §6, §7

| SMILES | Ki [1] | Ki [2] | Ki [3] |
| --- | --- | --- | --- |
| Cc1cc2c(N3CCN(CC[C@H]4CC[C@H](NC(=O)C[C@H]5COCCO5)CC4)CC3)noc2cc1F [Example 115, 2-(S)-[1,4]Dioxan-2-yl-N-trans-(4-{2-[4-(6-fluoro-5-methyl-benzo[d]isoxazol-3-yl)-piperazin-1-yl]-ethyl}-cyclohexyl)-acetamide] | > 9700 nM | 10 nM | 38 nM |
| COCCC(=O)N[C@H]1CC[C@H](CCN2CCN(c3noc4cc(F)c(Cl)cc34)CC2)CC1 [Example 74, N-trans-(4-{2-[4-(5-Chloro-6-fluoro-benzo[d]isoxazol-3-yl)-piperazin-1-yl]-ethyl}-cyclohexyl)-3-methoxy-propionamide] | 260 nM | 12.2 nM | 10.1 nM |
| O=C(CC1CCOCC1)N[C@H]1CC[C@H](CCN2CCN(c3noc4cc(Cl)ccc34)CC2)CC1 [Example 40, N-trans-(4-{2-[4-(6-Chloro-benzo[d]isoxazol-3-yl)-piperazin-1-yl]-ethyl}-cyclohexyl)-2-(tetrahydro-pyran-4-yl)-acetamide] | 1080 nM | 11.3 nM | 7.02 nM |
| O=C(CC1CC1)N[C@H]1CC[C@H](CCN2CCN(c3noc4cc(Cl)ccc34)CC2)CC1 [Example 52, N-trans-(4-{2-[4-(6-Chloro-benzo[d]isoxazol-3-yl)-piperazin-1-yl]-ethyl}-cyclohexyl)-2-cyclopropyl-acetamide] | 315 nM | 5.07 nM | 3.84 nM |
| Cc1ccc2c(N3CCN(CC[C@H]4CC[C@H](NC(=O)CC5OCCCO5)CC4)CC3)noc2c1 [Example 101, 2-[1,3]Dioxan-2-yl-N-trans-(4-{2-[4-(6-methyl-benzo[d]isoxazol-3-yl)-piperazin-1-yl]-ethyl}-cyclohexyl)-acetamide] | 384 nM | 5.15 nM | 8.33 nM |
| COC(CC(=O)N[C@H]1CC[C@H](CCN2CCN(c3noc4cc(Cl)ccc34)CC2)CC1)OC [Example 55, N-trans-(4-{2-[4-(6-Chloro-benzo[d]isoxazol-3-yl)-piperazin-1-yl]-ethyl}-cyclohexyl)-3,3-dimethoxy-propionamide] | 396 nM | 7.6 nM | 6.16 nM |
| O=C(N[C@H]1CC[C@H](CCN2CCN(c3noc4cc(Cl)ccc34)CC2)CC1)C1CCOCC1 [Example 32, Tetrahydro-pyran-4-carboxylic acid N-trans-(4-{2-[4-(6-chloro-benzo[d]isoxazol-3-yl)-piperazin-1-yl]-ethyl}-cyclohexyl)-amide] | 3040 nM | 2.37 nM | 15.9 nM |
| COCCC(=O)N[C@H]1CC[C@H](CCN2CCN(c3noc4cc(F)c(F)cc34)CC2)CC1 [Example 57, N-trans-(4-{2-[4-(5,6-Difluoro-benzo[d]isoxazol-3-yl)-piperazin-1-yl]-ethyl}-cyclohexyl)-3-methoxy-propionamide] | 396 nM | 13.1 nM | 6.18 nM |
| Cc1cc2c(N3CCN(CC[C@H]4CC[C@H](NC(=O)CC5OCCCO5)CC4)CC3)noc2cc1F [Example 111, 2-[1,3]Dioxan-2-yl-N-trans-(4-{2-[4-(6-fluoro-5-methyl-benzo[d]isoxazol-3-yl)-piperazin-1-yl]-ethyl}-cyclohexyl)-acetamide] | 4040 nM | 7.66 nM | 10.6 nM |
| O=C(N[C@H]1CC[C@H](CCN2CCN(c3noc4cc(Cl)ccc34)CC2)CC1)[C@H]1CCOC1 [Example 46, (S)-Tetrahydro-furan-3-carboxylic acid (4-{2-[4-(6-chloro-benzo[d]isoxazol-3-yl)-piperazin-1-yl]-ethyl}-cyclohexyl)-amide] | 488 nM | 10.9 nM | 20.9 nM |
| O=C(C[C@H]1C[C@H](CO)C1)N[C@H]1CC[C@H](CCN2CCN(c3noc4cc(F)c(Cl)cc34)CC2)CC1 [Example 79, N-trans-(4-{2-[4-(5-Chloro-6-fluoro-benzo[d]isoxazol-3-yl)-piperazin-1-yl]-ethyl}-cyclohexyl)-2-trans-(3-hydroxymethyl-cyclobutyl)-acetamide] | 6870 nM | 2.48 nM | 5.47 nM |
| Cc1ccc2c(N3CCN(CC[C@H]4CC[C@H](NC(=O)CC5COCCO5)CC4)CC3)noc2c1 (stereo partly drawn) [Example 102, 2-[1,4]Dioxan-2-yl-N-trans-(4-{2-[4-(6-methyl-benzo[d]isoxazol-3-yl)-piperazin-1-yl]-ethyl}-cyclohexyl)-acetamide] | 333 nM | 2.65 nM | 13.9 nM |

Further lines, results first:

| Ki [1] | Ki [2] | Ki [3] | SMILES |
| --- | --- | --- | --- |
| 1390 nM | 23.5 nM | 15.6 nM | CCOCC(=O)N[C@H]1CC[C@H](CCN2CCN(c3noc4ccc(F)cc34)CC2)CC1 [Example 12, 2-Ethoxy-N-trans-(4-{2-[4-(5-fluoro-benzo[d]isoxazol-3-yl)-piperazin-1-yl]-ethyl}-cyclohexyl)-acetamide] |
| 592 nM | 25.4 nM | 1.83 nM | NC(=O)CC(=O)N[C@H]1CC[C@H](CCN2CCN(c3noc4ccc(F)cc34)CC2)CC1 [Example 17, N-trans-(4-{2-[4-(5-Fluoro-benzo[d]isoxazol-3-yl)-piperazin-1-yl]-ethyl}-cyclohexyl)-malonamide] |
| 482 nM | 24 nM | 4.82 nM | CC(C)(O)CC(=O)N[C@H]1CC[C@H](CCN2CCN(c3noc4ccc(F)cc34)CC2)CC1 [Example 11, N-trans-(4-{2-[4-(5-Fluoro-benzo[d]isoxazol-3-yl)-piperazin-1-yl]-ethyl}-cyclohexyl)-3-hydroxy-3-methyl-butyramide] |
| 1060 nM | 26.8 nM | 7.03 nM | CC1(C)C[C@H](CC(=O)N[C@H]2CC[C@H](CCN3CCN(c4noc5ccc(F)cc45)CC3)CC2)CCO1 [Example 23, 2-((R)-2,2-Dimethyl-tetrahydro-pyran-4-yl)-N-(4-{2-[4-(5-fluoro-benzo[d]isoxazol-3-yl)-piperazin-1-yl]-ethyl}-cyclohexyl)-acetamide] |
| 3440 nM | 35.1 nM | 41.4 nM | COC1CCC(C(=O)N[C@H]2CC[C@H](CCN3CCN(c4noc5ccc(F)cc45)CC3)CC2)CC1 (stereo partly drawn) [Example 13, 4-Methoxy-cyclohexanecarboxylic acid N-trans-(4-{2-[4-(5-fluoro-benzo[d]isoxazol-3-yl)-piperazin-1-yl]-ethyl}-cyclohexyl)-amide] |
| 11800 nM | 26.3 nM | 6.44 nM | CO[C@H]1CC[C@H](CC(=O)N[C@H]2CC[C@H](CCN3CCN(c4noc5ccc(F)cc45)CC3)CC2)CC1 [Example 6, N-trans-(4-{2-[4-(5-Fluoro-benzo[d]isoxazol-3-yl)-piperazin-1-yl]-ethyl}-cyclohexyl)-2-trans-(4-methoxy-cyclohexyl)-acetamide] |
| 1860 nM | 23.3 nM | 7.49 nM | COCC(=O)N[C@H]1CC[C@H](CCN2CCN(c3noc4ccc(F)cc34)CC2)CC1 [Example 9, N-trans-(4-{2-[4-(5-Fluoro-benzo[d]isoxazol-3-yl)-piperazin-1-yl]-ethyl}-cyclohexyl)-2-methoxy-acetamide] |
